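Five compound concentrations were applied to cells in 96-well plates for 48 hours; endpoints were derived by simple linear interpolation of the resulting dose-response curve. At the GI50, growth is halved.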 Activity calls are given as the source filed them. No stated cut-off is given here; in the data, active = GI50 up to about 1.1 µM and inactive = higher.
How the values were obtained:
Experiment in all cases: NCI anticancer screen, dose series, 48 h
SNB-75 = tested on: SNB-75
MDA-MB-435 = tested on: MDA-MB-435
NCI-H226 = tested on: NCI-H226
SW-620 = tested on: SW-620
SNB-19 = tested on: SNB-19
786-0 = tested on: 786-0
SK-MEL-5 = tested on: SK-MEL-5
U-251 = tested on: U-251
SF-539 = tested on: SF-539
ACHN = tested on: ACHN
HOP-62 = tested on: HOP-62
PC-3 = tested on: PC-3
NCI/ADR-RES = tested on: NCI/ADR-RES
OVCAR-8 = tested on: OVCAR-8
COLO 205 = tested on: COLO 205
HL-60 = tested on: HL-60
NCI-H522 = tested on: NCI-H522
UO-31 = tested on: UO-31
HOP-92 = tested on: HOP-92

Measured: GI50

Cn1c(=O)sc2cc(C(=S)N3CCN(c4ccccc4)CC3)ccc21
inactive: SNB-75 28.7 µM | MDA-MB-435 > 100 µM | NCI-H226 55.3 µM | SW-620 > 100 µM | SNB-19 45.3 µM | 786-0 44 µM | SK-MEL-5 > 100 µM | U-251 16 µM | SF-539 24.4 µM | ACHN 70.3 µM | HOP-62 18.5 µM | PC-3 31.3 µM | NCI/ADR-RES 50 µM | OVCAR-8 38.4 µM | COLO 205 > 100 µM | HL-60 33.6 µM

OCC(Cn1cncn1)(c1ccc(F)cc1F)n1cncn1 (configuration not stated)
inactive: SNB-75 > 100 µM | MDA-MB-435 > 100 µM | NCI-H226 > 100 µM | SW-620 > 100 µM | SNB-19 > 100 µM | NCI-H522 > 100 µM | UO-31 > 100 µM | 786-0 66.1 µM | SK-MEL-5 > 100 µM | U-251 > 100 µM | SF-539 > 100 µM | ACHN > 100 µM | HOP-62 > 100 µM | PC-3 > 100 µM | NCI/ADR-RES > 100 µM | OVCAR-8 > 100 µM | COLO 205 > 100 µM | HL-60 > 100 µM

CN1CC2=C(N=C(S)NC2c2ccccc2)/C(=C/c2ccccc2)C1 (configuration not stated)
inactive: SNB-75 48 µM | MDA-MB-435 46.8 µM | NCI-H226 > 100 µM | SW-620 71.1 µM | SNB-19 > 100 µM | NCI-H522 43 µM | UO-31 60.5 µM | 786-0 > 100 µM | SK-MEL-5 27.7 µM | U-251 54.5 µM | SF-539 83.9 µM | ACHN 52.6 µM | HOP-62 > 100 µM | PC-3 15 µM | NCI/ADR-RES > 100 µM | OVCAR-8 > 10 µM | COLO 205 34.8 µM | HL-60 > 10 µM

CC(=O)OCCCOCn1c(Cc2ccccc2)c(C)c(=O)[nH]c1=O
inactive: SNB-75 > 100 µM | MDA-MB-435 > 100 µM | NCI-H226 > 100 µM | SW-620 > 100 µM | SNB-19 > 100 µM | NCI-H522 > 100 µM | UO-31 > 100 µM | 786-0 > 100 µM | HOP-92 > 100 µM | SK-MEL-5 > 100 µM | U-251 > 100 µM | SF-539 > 100 µM | ACHN > 100 µM | HOP-62 > 100 µM | PC-3 > 100 µM | OVCAR-8 > 100 µM | COLO 205 > 100 µM

Cc1nc2c(cc1C(=O)NN)c(=O)n(C)c(=O)n2C
inactive: SNB-75 > 100 µM | MDA-MB-435 > 100 µM | NCI-H226 > 100 µM | SW-620 > 100 µM | SNB-19 > 100 µM | UO-31 > 100 µM | 786-0 > 100 µM | SK-MEL-5 > 100 µM | U-251 > 100 µM | ACHN > 100 µM | HOP-62 > 100 µM | PC-3 > 100 µM | NCI/ADR-RES > 100 µM | OVCAR-8 > 100 µM | COLO 205 > 100 µM

CNc1cc(OCc2ccccc2)c(OC)cc1C(=O)N1CCC[C@H]1CO
inactive: SNB-75 > 100 µM | MDA-MB-435 > 100 µM | NCI-H226 > 100 µM | SW-620 > 100 µM | SNB-19 > 100 µM | NCI-H522 73.8 µM | UO-31 63.2 µM | 786-0 > 100 µM | SK-MEL-5 > 100 µM | U-251 > 100 µM | SF-539 > 100 µM | ACHN > 100 µM | HOP-62 > 100 µM | PC-3 > 100 µM | NCI/ADR-RES > 100 µM | OVCAR-8 > 100 µM | COLO 205 > 100 µM | HL-60 44.1 µM

O=C(NNC(=O)c1ccco1)c1ccco1
inactive: SNB-75 55 µM | MDA-MB-435 > 100 µM | NCI-H226 > 100 µM | SW-620 > 100 µM | SNB-19 > 100 µM | NCI-H522 15 µM | UO-31 > 100 µM | 786-0 > 100 µM | SK-MEL-5 > 100 µM | U-251 > 100 µM | SF-539 > 100 µM | HOP-62 > 100 µM | PC-3 > 100 µM | NCI/ADR-RES > 100 µM | OVCAR-8 > 100 µM | COLO 205 > 100 µM | HL-60 > 100 µM

O=C(CCl)N1CCN(c2ccccn2)CC1
inactive: SNB-75 > 10 µM | SW-620 23.8 µM | SNB-19 57.1 µM | UO-31 21.8 µM | 786-0 18.4 µM | HOP-92 21.3 µM | SK-MEL-5 18.1 µM | U-251 17.9 µM | ACHN 31.6 µM | HOP-62 22.7 µM | PC-3 > 100 µM | NCI/ADR-RES 27.2 µM | OVCAR-8 26.2 µM | COLO 205 24.2 µM | HL-60 24.3 µM

O=[N+]([O-])c1ccccc1/C=N/C12CC3CC(CC(C3)C1)C2
inactive: SNB-75 65 µM | NCI-H226 > 100 µM | SW-620 46.6 µM | SNB-19 49.9 µM | NCI-H522 > 100 µM | UO-31 > 100 µM | 786-0 52.4 µM | HOP-92 72.8 µM | SK-MEL-5 61.4 µM | U-251 > 100 µM | SF-539 80.2 µM | ACHN > 100 µM | HOP-62 99.5 µM | OVCAR-8 75 µM | COLO 205 > 100 µM | HL-60 21.4 µM

CC(=O)Nc1cccc(N2C(=O)/C(=C\c3cccc(Oc4ccccc4)c3)SC2c2ccccc2)c1 (configuration not stated)
inactive: MDA-MB-435 33.9 µM | NCI-H226 > 100 µM | SW-620 54.6 µM | SNB-19 > 100 µM | NCI-H522 63.5 µM | UO-31 47.9 µM | 786-0 > 100 µM | HOP-92 32.5 µM | SK-MEL-5 33.5 µM | U-251 35.5 µM | SF-539 38.4 µM | ACHN 99.8 µM | HOP-62 > 100 µM | NCI/ADR-RES 60.8 µM | OVCAR-8 92.5 µM | COLO 205 68.7 µM | HL-60 36.6 µM

c1cc2cc(Cc3ccc4[nH]ccc4c3)ccc2[nH]1
inactive: SNB-75 17.9 µM | MDA-MB-435 16.4 µM | NCI-H226 15.9 µM | SW-620 23.1 µM | SNB-19 21.5 µM | NCI-H522 15.6 µM | UO-31 16.2 µM | 786-0 18.3 µM | HOP-92 15.2 µM | SK-MEL-5 16.1 µM | U-251 15.4 µM | SF-539 16.5 µM | ACHN 25.2 µM | HOP-62 15.7 µM | PC-3 13.1 µM | COLO 205 17.5 µM | HL-60 10.7 µM

Cc1cc(S(N)(=O)=O)c(SCc2nc(N)nc(N(C)C)n2)cc1Cl
inactive: SNB-75 > 10 µM | NCI-H226 > 10 µM | SW-620 > 10 µM | SNB-19 > 10 µM | NCI-H522 > 10 µM | UO-31 > 10 µM | 786-0 > 10 µM | HOP-92 > 10 µM | SK-MEL-5 > 10 µM | U-251 > 10 µM | SF-539 > 10 µM | ACHN > 10 µM | HOP-62 > 10 µM | PC-3 > 10 µM | NCI/ADR-RES > 10 µM | OVCAR-8 > 10 µM | COLO 205 > 10 µM | HL-60 > 10 µM

— ChEMBL document CHEMBL1201862, “PubChem BioAssay data set” (2004)
